Experiment [1] in a line: DRUGMATRIX: Calcium Channel Type L, Benzothiazepine radioligand binding (ligand: [3H] Diltiazem). The format is cell membranes, Rattus norvegicus, Wistar, Brain, Membrane. The conditions noted are these: Not Active = under 50% inhibition at 10 µM.
Experiment [2] in a line: DRUGMATRIX: ATPase, Na+/K+ enzyme inhibition (substrate: ATP). The format is tissue-based, Sus scrofa, Heart. The note with it: Not Active = under 50% inhibition at 10 µM.
The target in the next experiment is T1, Interstitial collagenase (Homo sapiens, UniProt P03956).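 Further: MMP-1 enzyme inhibition assay using a peptide substrate; in other assays of this panel Not Active means under 50% inhibition at 10 µM.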
T1 sequence (P03956 whole entry): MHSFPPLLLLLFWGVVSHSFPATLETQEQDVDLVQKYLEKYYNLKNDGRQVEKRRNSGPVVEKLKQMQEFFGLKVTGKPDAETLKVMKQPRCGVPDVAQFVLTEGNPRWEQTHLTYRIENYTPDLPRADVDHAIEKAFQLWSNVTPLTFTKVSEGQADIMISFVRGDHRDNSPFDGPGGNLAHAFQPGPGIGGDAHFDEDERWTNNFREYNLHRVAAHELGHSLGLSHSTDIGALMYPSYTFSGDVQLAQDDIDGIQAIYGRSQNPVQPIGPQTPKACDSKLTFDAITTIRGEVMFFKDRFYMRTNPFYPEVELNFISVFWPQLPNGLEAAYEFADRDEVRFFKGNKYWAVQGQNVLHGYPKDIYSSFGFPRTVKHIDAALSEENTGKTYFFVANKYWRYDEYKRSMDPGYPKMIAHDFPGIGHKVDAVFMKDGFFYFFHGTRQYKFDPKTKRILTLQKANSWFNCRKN
As to the kind of experiment: biochemical. The format is tissue-based, Rheumatoid synovial fibroblasts.

In experiment [3] the target is Vascular endothelial growth factor receptor 1 (Homo sapiens, UniProt P17948). The experiment can be described thus: biochemical. The format is cell-based, HUVEC. The conditions noted are these: huvec. Further: in other assays of this panel Not Active means under 50% inhibition at 10 µM.
In experiment [4] the target is T2, Amine oxidase [flavin-containing] A (Homo sapiens, UniProt P21397).
T2 sequence (P21397 whole entry): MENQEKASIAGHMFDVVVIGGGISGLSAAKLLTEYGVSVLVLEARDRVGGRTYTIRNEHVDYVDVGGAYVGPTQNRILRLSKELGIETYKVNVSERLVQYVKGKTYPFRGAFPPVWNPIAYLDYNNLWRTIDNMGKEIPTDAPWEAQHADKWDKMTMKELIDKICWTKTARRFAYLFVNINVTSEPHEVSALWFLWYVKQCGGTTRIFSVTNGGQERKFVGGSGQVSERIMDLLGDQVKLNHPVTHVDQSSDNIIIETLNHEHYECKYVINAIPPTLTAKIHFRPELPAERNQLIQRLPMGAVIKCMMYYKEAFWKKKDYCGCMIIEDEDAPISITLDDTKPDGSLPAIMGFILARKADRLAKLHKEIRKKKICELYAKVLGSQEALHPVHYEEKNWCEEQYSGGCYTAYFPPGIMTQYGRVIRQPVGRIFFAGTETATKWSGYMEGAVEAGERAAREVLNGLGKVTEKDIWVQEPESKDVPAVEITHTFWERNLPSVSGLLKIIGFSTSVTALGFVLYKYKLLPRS
The experiment can be described thus: DRUGMATRIX: Monoamine Oxidase MAO-A enzyme inhibition (substrate: Kynuramine). Also on record: species or system BTI-TN-5B1-4. The note with it: Not Active = under 50% inhibition at 10 µM.

The target in experiment [5] is Prostaglandin G/H synthase 1 (Homo sapiens, UniProt P23219). The experiment can be described thus: biochemical. The format is tissue-based, Platelet. The note with it: platelet.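 Further: inhibition of COX-1 enzyme activity, with arachidonic acid supplied as substrate; in other assays of this panel Not Active means under 50% inhibition at 10 µM.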

By IC50 is commonly meant the concentration that inhibits the measured activity by half. In general, Ki refers to the dissociation constant of the complex between target and ligand, obtained from inhibition or displacement.

Vascular endothelial growth factor receptor 1, sequence (P17948 whole entry): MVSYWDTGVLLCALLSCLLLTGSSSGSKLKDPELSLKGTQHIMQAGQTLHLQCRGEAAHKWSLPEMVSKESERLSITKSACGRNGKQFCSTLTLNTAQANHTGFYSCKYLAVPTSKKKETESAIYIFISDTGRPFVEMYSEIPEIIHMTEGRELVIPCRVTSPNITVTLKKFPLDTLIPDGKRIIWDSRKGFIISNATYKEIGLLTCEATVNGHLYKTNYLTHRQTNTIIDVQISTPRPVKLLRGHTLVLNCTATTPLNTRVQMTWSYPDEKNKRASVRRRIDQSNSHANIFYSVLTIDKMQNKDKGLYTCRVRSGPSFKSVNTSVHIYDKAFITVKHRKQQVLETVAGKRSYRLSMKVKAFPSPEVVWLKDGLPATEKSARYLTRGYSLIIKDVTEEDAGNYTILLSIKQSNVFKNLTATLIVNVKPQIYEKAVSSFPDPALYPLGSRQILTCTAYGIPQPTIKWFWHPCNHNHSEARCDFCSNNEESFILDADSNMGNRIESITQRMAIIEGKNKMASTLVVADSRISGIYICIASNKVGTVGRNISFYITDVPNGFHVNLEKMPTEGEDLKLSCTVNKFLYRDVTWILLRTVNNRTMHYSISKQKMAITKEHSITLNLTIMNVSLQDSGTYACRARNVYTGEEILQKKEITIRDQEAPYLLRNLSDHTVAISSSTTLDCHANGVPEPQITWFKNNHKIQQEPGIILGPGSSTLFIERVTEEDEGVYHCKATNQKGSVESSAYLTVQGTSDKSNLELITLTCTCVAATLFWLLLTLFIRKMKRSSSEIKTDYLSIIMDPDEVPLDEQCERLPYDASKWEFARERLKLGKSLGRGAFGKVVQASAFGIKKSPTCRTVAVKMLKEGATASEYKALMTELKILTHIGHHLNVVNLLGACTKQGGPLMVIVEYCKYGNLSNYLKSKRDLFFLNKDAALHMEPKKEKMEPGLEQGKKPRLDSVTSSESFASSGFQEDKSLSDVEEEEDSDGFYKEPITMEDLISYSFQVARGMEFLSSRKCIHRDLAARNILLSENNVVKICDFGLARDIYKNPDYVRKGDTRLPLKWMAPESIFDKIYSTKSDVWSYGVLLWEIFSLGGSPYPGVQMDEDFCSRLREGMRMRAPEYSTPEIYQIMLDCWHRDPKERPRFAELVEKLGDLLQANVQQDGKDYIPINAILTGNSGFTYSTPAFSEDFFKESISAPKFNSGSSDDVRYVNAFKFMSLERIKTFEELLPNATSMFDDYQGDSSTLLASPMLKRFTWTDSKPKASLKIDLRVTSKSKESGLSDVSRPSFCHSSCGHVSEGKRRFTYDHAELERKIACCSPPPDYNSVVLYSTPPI
Prostaglandin G/H synthase 1, sequence (P23219 whole entry): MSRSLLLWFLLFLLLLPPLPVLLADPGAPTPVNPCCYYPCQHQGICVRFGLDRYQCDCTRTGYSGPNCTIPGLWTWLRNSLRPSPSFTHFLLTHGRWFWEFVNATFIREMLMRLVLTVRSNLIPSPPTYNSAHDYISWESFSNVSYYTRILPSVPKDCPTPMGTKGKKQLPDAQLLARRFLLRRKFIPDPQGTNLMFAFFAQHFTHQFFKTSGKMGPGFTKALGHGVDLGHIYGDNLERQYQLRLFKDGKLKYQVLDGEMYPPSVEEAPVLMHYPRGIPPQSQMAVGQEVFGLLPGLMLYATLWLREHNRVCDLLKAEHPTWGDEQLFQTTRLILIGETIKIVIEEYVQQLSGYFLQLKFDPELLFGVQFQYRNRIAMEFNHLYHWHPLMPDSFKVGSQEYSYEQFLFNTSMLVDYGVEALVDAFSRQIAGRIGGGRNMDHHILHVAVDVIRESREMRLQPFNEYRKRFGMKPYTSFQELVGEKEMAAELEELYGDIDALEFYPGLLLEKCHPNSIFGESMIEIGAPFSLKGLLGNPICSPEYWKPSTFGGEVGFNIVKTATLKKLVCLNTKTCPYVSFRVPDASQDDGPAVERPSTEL

For `COc1ccc(CCN(C)CCCC(C#N)(c2ccc(OC)c(OC)c2)C(C)C)cc1OC` (stereo not given), the concentration for half-maximal inhibition (IC50) in experiment [1] (read-out: IC50) is 14 nM; in experiment [2] it was “Not Active”; against Interstitial collagenase, “Not Active”; in experiment [3], “Not Active”; in experiment [4] (bti-tn-5b1-4), “Not Active”; in experiment [5], “Not Active”. In addition, the inhibition constant Ki is 12 nM in experiment [1] (read-out: Ki) and “Not Active” in experiment [2].

As to `CC(C)Cc1ccc([C@@H](C)C(=O)O)cc1` [(R)-IBUPROPHEN], the 50% inhibitory concentration (IC50) entry (in experiment [1]; in experiment [2]; against Interstitial collagenase; in experiment [3]; in experiment [4] (bti-tn-5b1-4); in experiment [5]) was “Not Active” throughout. Also, the inhibitory constant (Ki) result in experiment [1] and in experiment [2] was “Not Active” each time.

Regarding `CC(C)NCC(O)c1ccc(O)c(O)c1` (stereo not given) [ISOPROTERENOL], the half-maximal inhibitory concentration (IC50) result (in experiment [1]; in experiment [2]; at Interstitial collagenase; in experiment [3]; in experiment [4] (bti-tn-5b1-4); in experiment [5]) was “Not Active” each time. Besides, the inhibition constant (Ki) result in experiment [1] and in experiment [2] was “Not Active” in each case.

For `CC(C)Oc1ccc2c(=O)c(-c3ccccc3)coc2c1` [IPRIFLAVONE], the IC50 entry (in experiment [1]; in experiment [2]; at Interstitial collagenase; in experiment [3]; in experiment [4] (bti-tn-5b1-4)) was “Not Active” in each case. Further, the Ki result in experiment [1] and in experiment [2] was “Not Active” each time.

`CNC1(c2ccccc2Cl)CCCCC1=O` (stereo not given) [KETAMINE]: the IC50 result (in experiment [1]; in experiment [2]; at Interstitial collagenase; in experiment [3]; in experiment [4] (bti-tn-5b1-4); in experiment [5]) was “Not Active” in each case. Also, the Ki result in experiment [1] and in experiment [2] was “Not Active” throughout.

With `O=C(O)c1cn(-c2ccc(F)cc2)c2cc(N3CCNCC3)c(F)cc2c1=O` [SARAFLOXACIN], the IC50 result (in experiment [1]; in experiment [2]; against Interstitial collagenase; in experiment [3]; in experiment [4] (bti-tn-5b1-4); in experiment [5]) was “Not Active” throughout. Moreover, the Ki entry in experiment [1] and in experiment [2] was “Not Active” in each case.

For the compound `Cn1c(=O)c2nc[nH]c2n(C)c1=O.O` [THEOPHYLLINE], the IC50 entry (in experiment [1]; in experiment [2]; against Interstitial collagenase; in experiment [3]; in experiment [4] (bti-tn-5b1-4); in experiment [5]) was “Not Active” each time. The Ki entry in experiment [1] and in experiment [2] was “Not Active” in each case.

For `CN[C@H]1CC[C@@H](c2ccc(Cl)c(Cl)c2)c2ccccc21` [SERTRALINE], the half-maximal inhibitory concentration (IC50) entry (against Interstitial collagenase; in experiment [3]; in experiment [4] (bti-tn-5b1-4); in experiment [5]) was “Not Active” each time.

For the compound `CCCCNc1ccc(C(=O)OCCN(C)C)cc1` [TETRACAINE], the IC50 result in experiment [1] is “Not Active”; in experiment [2] it was “Not Active”; on Interstitial collagenase it was “Not Active”; in experiment [3], “Not Active”; in experiment [4] (read-out: IC50), 317 nM; in experiment [5], “Not Active”. Besides, the Ki entry in experiment [1] and in experiment [2] was “Not Active” each time.

As to `CC[C@@H](C(=O)[C@@H](C)[C@@H](O)[C@H](C)[C@@H]1O[C@@H]([C@@H](CC)C(=O)O)CC[C@@H]1C)[C@H]1O[C@]2(C=C[C@@H](O)[C@]3(CC[C@@](C)([C@H]4CC[C@](O)(CC)[C@H](C)O4)O3)O2)[C@H](C)C[C@@H]1C` [SALINOMYCIN], the IC50 entry (in experiment [1]; in experiment [2]; against Interstitial collagenase; in experiment [3]; in experiment [4] (bti-tn-5b1-4); in experiment [5]) was “Not Active” throughout. Besides, the Ki result in experiment [1] and in experiment [2] was “Not Active” throughout.

For the compound `Fc1ccc(C(c2ccc(F)cc2)N2CCN(C/C=C/c3ccccc3)CC2)cc1` [FLUNARIZINE], the half-inhibitory concentration (IC50) result (against Interstitial collagenase; in experiment [3]; in experiment [4] (bti-tn-5b1-4); in experiment [5]) was “Not Active” in each case.

Turning to `CS(=O)(=O)c1ccc([C@@H](O)[C@@H](CO)NC(=O)C(Cl)Cl)cc1` [THIAMPHENICOL], the IC50 entry (in experiment [1]; in experiment [2]; on Interstitial collagenase; in experiment [3]; in experiment [4] (bti-tn-5b1-4); in experiment [5]) was “Not Active” in each case. The Ki result in experiment [1] and in experiment [2] was “Not Active” throughout.

For `O=C(Oc1ccccc1C(=O)O)c1ccccc1O` [SALSALATE], the half-maximal inhibitory concentration (IC50) entry (in experiment [1]; in experiment [2]; against Interstitial collagenase; in experiment [3]; in experiment [4] (bti-tn-5b1-4); in experiment [5]) was “Not Active” each time. Also, the inhibition constant (Ki) entry in experiment [1] and in experiment [2] was “Not Active” each time.

For the compound `CC(C)NCC(O)c1ccc(NS(C)(=O)=O)cc1` (stereo not given) [SOTALOL], the 50% inhibitory concentration (IC50) entry (in experiment [1]; in experiment [2]; on Interstitial collagenase; in experiment [3]; in experiment [4] (bti-tn-5b1-4); in experiment [5]) was “Not Active” throughout. Moreover, the Ki result in experiment [1] and in experiment [2] was “Not Active” throughout.

As to `O.O.O.O.O.O.[Cl-].[Cl-].[Sr+2]` [STRONTIUM CHLORIDE HEXAHYDRATE], the IC50 result (in experiment [1]; in experiment [2]; against Interstitial collagenase; in experiment [3]; in experiment [4] (bti-tn-5b1-4); in experiment [5]) was “Not Active” each time. The inhibition constant Ki entry in experiment [1] and in experiment [2] was “Not Active” each time.

For the compound `CNCCC(Oc1ccc(C(F)(F)F)cc1)c1ccccc1` (stereo not given) [FLUOXETINE], the IC50 result (against Interstitial collagenase; in experiment [3]; in experiment [4] (bti-tn-5b1-4); in experiment [5]) was “Not Active” in each case.

Consider `CO[C@H]1/C=C/O[C@@]2(C)Oc3c(C)c(O)c4c(O)c(c(/C=N/N5CCN(C6CCCC6)CC5)c(O)c4c3C2=O)NC(=O)/C(C)=C\C=C\[C@H](C)[C@H](O)[C@@H](C)[C@@H](O)[C@@H](C)[C@H](OC(C)=O)[C@@H]1C` [RIFAPENTINE], for which the concentration for half-maximal inhibition (IC50) entry (in experiment [1]; in experiment [2]; against Interstitial collagenase; in experiment [3]; in experiment [4] (bti-tn-5b1-4); in experiment [5]) was “Not Active” each time. Further, the Ki result in experiment [1] and in experiment [2] was “Not Active” in each case.

`Cc1cccc(C)c1OCC(C)N` (stereo not given) [MEXILETINE]: the IC50 entry (in experiment [1]; in experiment [2]; on Interstitial collagenase; in experiment [3]; in experiment [4] (bti-tn-5b1-4); in experiment [5]) was “Not Active” each time. Moreover, the Ki entry in experiment [1] and in experiment [2] was “Not Active” in each case.

In the case of `C[C@H]1C[C@@H]2[C@H]([C@@H](O)C[C@@]3(C)[C@H]2CC[C@]3(O)C(=O)CO)[C@@]2(C)C=CC(=O)C=C12` [METHYLPREDNISOLONE], the IC50 entry (in experiment [1]; in experiment [2]; on Interstitial collagenase; in experiment [3]; in experiment [4] (bti-tn-5b1-4); in experiment [5]) was “Not Active” each time. In addition, the Ki entry in experiment [1] and in experiment [2] was “Not Active” throughout.

Consider `COc1cc2nc(N3CCN(C(=O)C4CCCO4)CC3)nc(N)c2cc1OC` (stereo not given) [TERAZOSIN], for which the half-inhibitory concentration (IC50) entry (in experiment [1]; in experiment [2]; on Interstitial collagenase; in experiment [3]; in experiment [4] (bti-tn-5b1-4); in experiment [5]) was “Not Active” each time. In addition, the Ki result in experiment [1] and in experiment [2] was “Not Active” throughout.

Turning to `O=C1C(CC[S+]([O-])c2ccccc2)C(=O)N(c2ccccc2)N1c1ccccc1` (stereo not given) [SULFINPYRAZONE], the half-inhibitory concentration (IC50) entry (in experiment [1]; in experiment [2]; against Interstitial collagenase; in experiment [3]; in experiment [4] (bti-tn-5b1-4); in experiment [5]) was “Not Active” in each case. In addition, the Ki result in experiment [1] and in experiment [2] was “Not Active” each time.

These data come from ChEMBL document CHEMBL1909046, “DrugMatrix in vitro pharmacology data”.
